Holding throughout (type): cell-based
The test system of test [1] is Trichophyton mentagrophytes. Nature of the test: minimum inhibitory concentration (MIC) against fungi, Trich. ment. The source says: (§1) As examples of the effectiveness of the compounds of general Formula III against fungi, Table I indicates the minimum inhibitory concentrations (MIC) of several compounds. The comparison compounds are the known 2-Dimethylamino-6-(β-diethylaminoethoxy)-benzothiazole dihydrochloride and two 5-nitrothiazole derivatives substituted in the 2-position, which are known in the literature (J. Med. Chem. 12 [1969] 303).

In test [2] the test system is Trichophyton rubrum. Nature of the test: minimum inhibitory concentration (MIC) against fungi, Trich. rubr.
From the text: as §1

Test [3] has as its system Candida albicans. The experiment in a line: minimum inhibitory concentration (MIC) against fungi, Cand. alb.
From the text: as §1

These results are taken from patent publication US4006241A, “Certain halothien-2-yl 5-nitrothiazol-2-yl ketones and fungicidal composition” (Schering Aktiengesellschaft, priority 1973, dated 1977).

≈ marks a conversion by molar mass, not a printed value.

For `Cc1cc(C(=O)c2ncc([N+](=O)[O-])s2)c(C)c(C)c1O`, the MIC turned out to be 6.3 µg/mL (≈ 21.6 µM) in test [1], 3.1 µg/mL (≈ 10.6 µM) in test [2] and 1.6 µg/mL (≈ 5.47 µM) in test [3].

Regarding `Cc1ccc(C(=O)c2ncc([N+](=O)[O-])s2)c(F)c1C`, the minimum inhibitory concentration (MIC) was found to be 3.1 µg/mL (≈ 11.1 µM) in test [1], 3.1 µg/mL (≈ 11.1 µM) in test [2] and 1.6 µg/mL (≈ 5.71 µM) in test [3].

For the molecule `O=C(c1ccc(Br)s1)c1ncc([N+](=O)[O-])s1`, the minimum inhibitory concentration (MIC) in test [1] stood at 1.6 µg/mL (≈ 5.01 µM); in test [2] it was 1.6 µg/mL (≈ 5.01 µM); in test [3] it was 0.4 µg/mL (≈ 1.25 µM).

`CCOC(=N)c1ncc([N+](=O)[O-])s1`: the MIC in test [1], in test [2] and in test [3] was 50 µg/mL (≈ 249 µM) throughout.

For the molecule `CC(=O)NN=Cc1ncc([N+](=O)[O-])s1`, the minimum inhibitory concentration (MIC) in test [1] stood at 12.5 µg/mL (≈ 58.4 µM); in test [2], 12.5 µg/mL (≈ 58.4 µM); in test [3], 25 µg/mL (≈ 117 µM).

Turning to `CCN(CC)CCOc1ccc2nc(N(C)C)sc2c1.Cl.Cl` [2-Dimethylamino-6-(β-diethylaminoethoxy)-benzothiazole dihydrochloride], the MIC was found to be 50 µg/mL in test [1], 50 µg/mL in test [2] and 300 µg/mL in test [3].
